Experimental data as given in patent EP2616456B1, “NUCLEAR EXPORT INHIBITORS” (Universitätsmedizin der Johannes Gutenberg-Universität Mainz, priority 2010, dated 2012).

Experiments:
A431 = experiment: Cell viability (CellTiter-Glo) and cell death, A431; type: cell-based; conditions: for cell death induced by treatment: A431 (epidermoid carcinoma), 25µM; for viability compared to the control: A431, 100µM, 72h, CellTiter-Glo
Procedure: To test the anti-cancer activity of the compounds, several cancer cell lines, currently used as models for different epithelial cancers and leukemias, were treated with the indicated inhibitors. […] Every 24h, the cell culture medium was replaced by fresh compound-containing medium. 72h post treatment, cell were analyzed by adding 100µl CellTiter-Glo® assay reagent (Promega). Luminescence was measured with a LuminoskanAscent device (ThermoScientific). Cells treated with a corresponding amount of DMSO only were use as a control. The luminescence (equals cell viability) of said control was set to 100%.

HeLa cells = experiment: Apoptosis by immunoblot detection of cleaved Caspase 3 and PARP cleavage in HeLa lysates; type: cell-based; conditions: 25µM, lysates 72h post treatment
Source text: Lysates of cells treated DMSO only were used as a control.

human CRM1 (Crm1-HA) = human CRM1 (Crm1-HA) (Homo sapiens, UniProt O14980); experiment: In vitro pull-down of Crm1-HA with GST-SurvivinNES-GFP beads; type: binding; conditions: preincubation 1mM, 30min at 4°C
Procedure: The binding of LMB and of compounds C3 and C5 to CRM1 was examined by in vitro pull-down assays as described by Stauber et al., 2006. Briefly, in vitro coupled transcription/translation was performed using the TNT reticulocyte lysate system (Promega, Madison, WI, USA) supplemented with methionine (Promega, Madison, WI, USA) and plasmid pCrm1_HA (1µg), encoding a hemagglutinin epitope-tagged version of human CRM1 (Crm1-HA), as the template. Equal amounts of the Crm1-HA TNT reaction were preincubated with either DMSO (negative control; 0.1%), LMB (400nM, final concentration), C3 (1 mM; final concentration) or C5 (1mM; final concentration) in binding-buffer containing 5mM MgCl2 (AppliChem, Darmstadt, Germany), 2mM GTP (PEQLAB, Erlangen, Germany), 50mM Hepes pH 7.9 (AppliChem, Darmstadt, Germany), 200mM KCI (AppliChem, Darmstadt, Germany), 0.4% Tween 20 (AppliChem, Darmstadt, Germany), supplemented with complete protease inhibitor cocktail (Roche, Mannheim, Germany) for 30min at 4°C. Subsequently, GST-Sepharose beads loaded with 25µg recombinant GST-SurvivinNES-GFP and 5µg GST-RanQ96L were added to each drug-treated TNT reaction. Recombinant GST-SurvivinNES-GFP and GST-RanQ96L were purified from bacteria as described by Stauber et al., 2006. Pull-down was performed for 4h at 4°C in a rotating wheel. Samples were then centrifuged (3500rpm, 1min, 4°C) to recover the GST-SurvivinNES-GFP beads with bound Crm1-HA. Beads were washed three times with binding-buffer (500µl each washing step, 3500rpm, 1min, 4°C). Finally, bound proteins were eluted by adding 25µl 2xSDS-sample buffer (250mM Tris-HCl pH 6.8; 2% w/v SDS, 20% glycerol, 2% β-mercaptoethanol, 0.002% w/v bromophenol blue) and incubating at 95°C for 2min. Samples were separated by SDS-gelelectrophoresis and analyzed by immunoblot analysis as described by Stauber et al., 2006. Crm1-HA was detected with HA specific antibodies (MMS-101R, Covance, New Jersey, USA). GFP served as the loading control and was visualized with GFP specific antibodies (sc-8334, Santa Cruz Biotechnology, Heidelberg, Germany).

Survivin = experiment: Nuclear export of Survivin-GFP fusion stably expressed in A431 cells; type: cell-based; conditions: A431, stable expression, 25µM
Source text: Nuclear export of Survivin is crucial for its tumor promoting cytoprotective activity (Engels et al., 2007; Knauer et al., 2007a; Knauer et al., 2007b).

Sequence of human CRM1 (Crm1-HA) (O14980 whole entry): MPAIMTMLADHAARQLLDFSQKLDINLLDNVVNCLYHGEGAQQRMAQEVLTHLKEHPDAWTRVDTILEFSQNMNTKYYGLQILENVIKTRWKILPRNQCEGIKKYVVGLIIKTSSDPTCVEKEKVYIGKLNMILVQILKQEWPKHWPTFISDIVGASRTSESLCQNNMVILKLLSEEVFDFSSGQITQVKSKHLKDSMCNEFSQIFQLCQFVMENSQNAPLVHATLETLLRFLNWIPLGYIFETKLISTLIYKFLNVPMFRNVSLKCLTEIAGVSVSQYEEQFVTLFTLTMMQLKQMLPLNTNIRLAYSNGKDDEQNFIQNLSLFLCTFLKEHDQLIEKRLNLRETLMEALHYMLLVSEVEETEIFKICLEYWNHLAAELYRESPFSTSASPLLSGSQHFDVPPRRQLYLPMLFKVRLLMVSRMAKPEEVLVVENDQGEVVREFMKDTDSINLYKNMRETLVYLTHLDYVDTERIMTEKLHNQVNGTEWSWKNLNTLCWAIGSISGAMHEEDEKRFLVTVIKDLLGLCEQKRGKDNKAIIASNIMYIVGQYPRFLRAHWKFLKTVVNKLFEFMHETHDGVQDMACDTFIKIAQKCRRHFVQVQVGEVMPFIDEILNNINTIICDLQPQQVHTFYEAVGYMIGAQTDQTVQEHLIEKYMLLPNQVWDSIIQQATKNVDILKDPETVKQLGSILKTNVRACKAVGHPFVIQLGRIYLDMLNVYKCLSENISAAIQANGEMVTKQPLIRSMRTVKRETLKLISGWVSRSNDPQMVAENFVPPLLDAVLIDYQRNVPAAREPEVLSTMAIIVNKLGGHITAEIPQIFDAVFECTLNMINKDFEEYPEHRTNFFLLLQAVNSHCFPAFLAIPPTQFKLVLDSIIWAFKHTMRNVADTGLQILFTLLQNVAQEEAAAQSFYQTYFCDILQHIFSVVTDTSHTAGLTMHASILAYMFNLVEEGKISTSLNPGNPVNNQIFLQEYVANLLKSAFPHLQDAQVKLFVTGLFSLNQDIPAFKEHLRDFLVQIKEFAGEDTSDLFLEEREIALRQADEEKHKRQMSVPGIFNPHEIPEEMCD

Compound | cell death induced by treatment (A431) | viability compared to the control (A431) | drug-induced apoptosis (cleaved Caspase 3 and PARP cleavage) (HeLa cells) | interaction of Crm1-HA with the export substrate GST-SurvivinNES-GFP (human CRM1 (Crm1-HA)) | Localization of Survivin-GFP fusion (nuclear export of Survivin) (Survivin)
NC(=O)c1c(NC(NC(=O)c2ccccc2F)(C(F)(F)F)C(F)(F)F)sc2c1CCCC2 [Compound C3, 2-[[1,1,1,3,3,3-hexafluoro-2-[(2-fluorobenzoyl)amino]propan-2-yl]amino]-4,5,6,7-tetrahydro-1-benzothiophene-3-carboxamide] | cell death | significantly reduced viability | drug-induced apoptosis was shown | did not affected the CRM1 binding | 
O=C(NC1CS(=O)(=O)CC1Cl)c1cccc(C(F)(F)F)c1 (stereo not drawn) [Compound C5, N-(4-chloro-1,1-dioxothiolan-3-yl)-3-(trifluoromethyl)benzamide] | cell death | significantly reduced viability | drug-induced apoptosis was shown | did not affected the CRM1 binding | nuclear accumulation
